The text below walks through data of US20020055541A1, “Compositions containing hypotriglyceridemically active stilbenoids” (Shaman Pharmaceuticals, Inc., priority 2000, published 2002).

For series [1] the following is noted: reported by Inamori et al., Chem. Phar. Bull. 33(7):2904-09 (1985); cited from earlier work.
A short description of series [2]: Body weight in fat fed, STZ treated rats. The note with it: 250 mg/kg q.d., FIG. 3. The class given is in vivo, rat. Here is the method:
FIG. 3 is a line graph showing the mean body weight […] in fat fed, STZ treated rats administered with GELUCIRE™ vehicle only; and 3-hydroxy-4-(3-methyl-2-butenyl)-5-methoxystilbene-2-carboxylic acid (Compound A). -O- represents vehicle; and -▪- represents Compound A administered at 250 mg/kg q.d. Animals were administered the vehicle and compounds at 24, 48, 72 and 96 h, and […] were measured at 0, 30, 51, 54, 75 and 80 hours after the oral administration. All data points N=8. *P<0.05 (analysis of variance (ANOVA), one factor).
(§1) Male Sprague Dawley rats arrival from Charles River Laboratories, Hollister, Calif., were fed a high fat (20% by weight) diet (TD 78463) obtained from Harlan Teklad, Madison, Wis., which was stored at 4° C. prior to use. Administration of a high fed diet is a well-known method of inducing hypertriglyceridemia in rats.
(§2) Compound A formulations were prepared fresh daily. The appropriate amount of Compound A in GELUCIRE™ was administered by oral gavage at a volume of 2.5 ml/kg of body weight. Animals were fasted at 8:00 am each day.

Series [3] is described as follows: Food consumption in fat fed, STZ treated rats. The series is classed as in vivo, rat. The following applies: 250 mg/kg q.d., FIG. 4. The method, then:
FIG. 4 is a line graph showing the mean food consumption (mg) in fat fed, STZ treated rats administered with GELUCIRE™ vehicle only; and 3-hydroxy-4-(3-methyl-2-butenyl)-5-methoxystilbene-2-carboxylic acid (Compound A). -O- represents vehicle; and -▪- represents Compound A administered at 250 mg/kg q.d. Animals were administered the vehicle and compounds at 24, 48, 72 and 96 h, and […] were measured at 0, 30, 51, 54, 75 and 80 hours after the oral administration. All data points N=8. *P<0.05 (analysis of variance (ANOVA), one factor).
as §1, §2

In series [4] the test system is fat fed, STZ treated male Sprague Dawley rats. Nature of the series: Serum triglyceride levels in fat-fed STZ treated rats (model of hypertriglyceridemia). The series is classed as in vivo, rat. An excerpt:
This example illustrates the effectiveness of the stilbenoids of formula (I) in reducing serum triglyceride levels in fat-fed STZ treated male Sprague Dawley rats, i.e., an art-recognized model of hypertriglyceridemia.
This example illustrates the effectiveness of the stilbenoids of formula (I), e.g. longistyline A-2-carboxylic acid (Compound A) in reducing serum triglyceride levels in fat fed, STZ treated male Sprague Dawley rats, i.e., an art recognized model of hypertriglyceridemia. […]
Blood samples from tail snips bleeds were collected six hours after the dose on day one, and three (3) and six (6) hours after the administration of the dose on days 2 through 4 into M brand (Becton Dickinson, Franklin Lakes, NJ) serum separator tubes, and centrifuged at 12,000 rpm for 10 minutes. Serum was removed and triglyceride levels were measured using enzymatic […] methods (M. W. McGowan, et al., Clin. Chem. 29, 538 (1983) and P Trinder, Ann. Clin. Biochem. 6, 24 (1969)) using Sigma Diagnostic Kits, Sigma Chemical Company, St. Louis, Mo.
Triglyceride levels are expressed as the mean +SEM. Data were analyzed by one-way analysis of variance (ANOVA), followed by post-hoc Fisher's protected least squares difference (PLSD) tests. […]

For series [5] the following is noted: reported by Arichi et al., Chem. Pharm. Bull. 30(5) 1766-1770 (1982); cited from earlier work.

Each structure is given as a SMILES string.

With `Oc1cc(O)cc(C=Cc2ccc(O)c(O)c2)c1` [3,3′,4,5′-tetrahydroxystilbene], in series [1], the Antifungal activity result is given as “strong”.
Regarding `COc1cc(/C=C/c2ccccc2)c(C(=O)O)c(O)c1CC=C(C)C` [Compound A, 3-hydroxy-4-(3-methyl-2-butenyl)-5-methoxystilbene-2-carboxylic acid], the “Gain in rat body weight over the course of treatment” value in series [2] was “normal and similar among the treatment groups”. For the same compound, the “Food intake (daily mean food consumption)” value in series [3] is given as “not effected by the treatments”. Further, in series [4] (250 mg/kg body weight q.d. oral gavage in GELUCIRE vehicle, fat fed STZ rats, N=8, p<0.05, FIG. 2), the “Serum triglyceride (TG) levels vs vehicle only, at each of the time points” value was “significantly lower”. In addition, the “Mean TG levels vs GELUCIRE vehicle group, compared at individual sampling times” value in series [4] (250 mg/kg body weight q.d., from day 2 through the end of treatment) is recorded as “significantly lower”.
Regarding `OC[C@H]1OC(Oc2c(O)cc(O)cc2C=Cc2ccc(O)cc2)[C@H](O)[C@@H](O)[C@@H]1O` (stereo partly drawn) [2,3,5,4′-tetrahydroxy stilbene-2-O-D-glucoside], the Serum triglyceride levels result in series [5] is reported as “reduce”.
On to `OC[C@H]1O[C@@H](Oc2cc(O)cc(/C=C/c3ccc(O)cc3)c2)[C@H](O)[C@@H](O)[C@@H]1O` [Piceid, 3,4′,5-trihydroxystilbene-3-O-β-D-glucopyranoside], for which, in series [5], the Liver lipid levels entry is “lower” and the Serum triglyceride levels entry is listed as “lower”.
